Experimental data as given in ChEMBL document CHEMBL1201862, “PubChem BioAssay data set” (2004).
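Where inhibition never reached the appropriate level, the endpoint shown equals the highest concentration tested. Otherwise, values were interpolated linearly from a five-concentration, 48-hour dose response in 96-well plates. Here, GI50 denotes the concentration required for 50% inhibition of growth.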 Calls of active or inactive are those of the source. No stated cut-off is given here; in the data, active = GI50 up to about 1.1 µM and inactive = higher.

What was measured:
Assay in all cases: growth of human tumour cells (NCI), 48 h
MDA-MB-231 = tested on: MDA-MB-231
A498 = tested on: A498
SW-620 = tested on: SW-620
K562 = tested on: K562
TK-10 = tested on: TK-10
BT-549 = tested on: BT-549
IGROV-1 = tested on: IGROV-1
MCF7 = tested on: MCF7
EKVX = tested on: EKVX
HOP-62 = tested on: HOP-62
SK-MEL-5 = tested on: SK-MEL-5
PC-3 = tested on: PC-3
MDA-N = tested on: MDA-N
OVCAR-4 = tested on: OVCAR-4
OVCAR-8 = tested on: OVCAR-8
Malme-3M = tested on: Malme-3M
LOX IMVI = tested on: LOX IMVI
CCRF-CEM = tested on: CCRF-CEM
SK-OV-3 = tested on: SK-OV-3
SNB-75 = tested on: SNB-75

Row | Structure (SMILES) | GI50 (MDA-MB-231) | GI50 (A498) | GI50 (SW-620) | GI50 (K562) | GI50 (TK-10) | GI50 (BT-549) | GI50 (IGROV-1) | GI50 (MCF7) | GI50 (EKVX) | GI50 (HOP-62) | GI50 (SK-MEL-5) | GI50 (PC-3) | GI50 (MDA-N) | GI50 (OVCAR-4) | GI50 (OVCAR-8) | GI50 (Malme-3M) | GI50 (LOX IMVI) | GI50 (CCRF-CEM) | GI50 (SK-OV-3) | GI50 (SNB-75)
1 | O=C(Nc1nc(C23CC4CC(CC(C4)C2)C3)cs1)c1cc2ccc(O)cc2oc1=O | 6.04 µM (inactive) | 10.7 µM (inactive) | 10.3 µM (inactive) | 4.88 µM (inactive) | 26.8 µM (inactive) | > 10 µM (inactive) | 7.41 µM (inactive) | 14.1 µM (inactive) | 13.2 µM (inactive) | 15.2 µM (inactive) | 13.7 µM (inactive) | 13.5 µM (inactive) | 14 µM (inactive) | 8.26 µM (inactive) | 6.67 µM (inactive) | 12 µM (inactive) | 8.07 µM (inactive) | 14.7 µM (inactive) | – | –
2 | CCCCCCCCCCCCCCCCC1=CC(=O)C=C(OC)C1=O | > 100 µM (inactive) | 48.5 µM (inactive) | > 100 µM (inactive) | 47.4 µM (inactive) | > 100 µM (inactive) | – | > 100 µM (inactive) | > 100 µM (inactive) | > 100 µM (inactive) | > 100 µM (inactive) | > 100 µM (inactive) | 80.4 µM (inactive) | > 100 µM (inactive) | > 100 µM (inactive) | 49.3 µM (inactive) | > 100 µM (inactive) | 65.3 µM (inactive) | 29.4 µM (inactive) | > 100 µM (inactive) | > 100 µM (inactive)
3 | O=C1CSSCC(=O)Nc2ccccc2N1 | > 100 µM (inactive) | > 100 µM (inactive) | > 100 µM (inactive) | > 100 µM (inactive) | > 100 µM (inactive) | > 100 µM (inactive) | > 100 µM (inactive) | – | > 100 µM (inactive) | > 100 µM (inactive) | > 100 µM (inactive) | > 100 µM (inactive) | > 100 µM (inactive) | > 100 µM (inactive) | > 100 µM (inactive) | > 100 µM (inactive) | > 100 µM (inactive) | > 100 µM (inactive) | > 100 µM (inactive) | –
4 | CCOC(=O)C1(C(=O)OCC)COS(=O)OC1 | 16.9 µM (inactive) | > 100 µM (inactive) | 18.6 µM (inactive) | 21.4 µM (inactive) | > 100 µM (inactive) | – | – | 19.1 µM (inactive) | – | – | 35.6 µM (inactive) | > 100 µM (inactive) | 35.5 µM (inactive) | 20.7 µM (inactive) | 45.1 µM (inactive) | – | 13.2 µM (inactive) | 10.6 µM (inactive) | > 100 µM (inactive) | 79.1 µM (inactive)
5 | NC(CCCCP(=O)(O)O)C(=O)O (configuration not stated) | > 100 µM (inactive) | – | > 100 µM (inactive) | > 100 µM (inactive) | > 100 µM (inactive) | > 100 µM (inactive) | > 100 µM (inactive) | – | > 100 µM (inactive) | – | > 100 µM (inactive) | > 100 µM (inactive) | > 100 µM (inactive) | > 100 µM (inactive) | > 100 µM (inactive) | – | > 100 µM (inactive) | > 100 µM (inactive) | > 100 µM (inactive) | > 100 µM (inactive)
6 | COc1ccc2[nH]c3c(C)c4cc[n+](C)cc4c(C)c3c2c1 | – | – | 1.11 µM (active) | – | – | 1.87 µM (inactive) | 2.19 µM (inactive) | 2.39 µM (inactive) | 1.16 µM (inactive) | 0.621 µM (active) | 1.76 µM (inactive) | 3.54 µM (inactive) | – | 3.37 µM (inactive) | 0.305 µM (active) | 1.06 µM (active) | 10.2 µM (inactive) | 1.72 µM (inactive) | 6.78 µM (inactive) | 0.228 µM (active)
7 | CN(C)CCNC(=O)c1cc([N+](=O)[O-])cc2c1Oc1ccccc1O2 | – | 25.1 µM (inactive) | 11.9 µM (inactive) | 23.2 µM (inactive) | 23.7 µM (inactive) | 35.5 µM (inactive) | 23.4 µM (inactive) | 23.1 µM (inactive) | 56.1 µM (inactive) | 22.5 µM (inactive) | 23 µM (inactive) | 42 µM (inactive) | 58.2 µM (inactive) | 40.6 µM (inactive) | 14.4 µM (inactive) | 21.7 µM (inactive) | 12.9 µM (inactive) | 17.8 µM (inactive) | – | 13 µM (inactive)
8 | CC(C)c1cc2c(c(O)c1O)[C@@]1(C(=O)O)CCCC(C)(C)[C@@H]1CC2 [CARNOSIC ACID] | 31.8 µM (inactive) | – | 31.8 µM (inactive) | 28.4 µM (inactive) | 13.4 µM (inactive) | 10.5 µM (inactive) | 19.4 µM (inactive) | 18.9 µM (inactive) | 15.9 µM (inactive) | 27.2 µM (inactive) | 16.2 µM (inactive) | 15.3 µM (inactive) | 32.4 µM (inactive) | 39.5 µM (inactive) | 15.3 µM (inactive) | – | 19.6 µM (inactive) | 3.18 µM (inactive) | 37.3 µM (inactive) | 17.8 µM (inactive)
